Laboratory results from publication PMC12563652 (International Journal of Molecular Sciences, 2025).

Columns and labels:
[1] = molecular target: T1, 5-HT2C serotoninergic receptor (Homo sapiens, UniProt P28335); experiment: 5-HT2C intrinsic activity, agonist mode (AequoScreen calcium mobilization); assay type: cell-based; conditions: n.a. = no activity at 10–5 M
T1 sequence (P28335 33-458): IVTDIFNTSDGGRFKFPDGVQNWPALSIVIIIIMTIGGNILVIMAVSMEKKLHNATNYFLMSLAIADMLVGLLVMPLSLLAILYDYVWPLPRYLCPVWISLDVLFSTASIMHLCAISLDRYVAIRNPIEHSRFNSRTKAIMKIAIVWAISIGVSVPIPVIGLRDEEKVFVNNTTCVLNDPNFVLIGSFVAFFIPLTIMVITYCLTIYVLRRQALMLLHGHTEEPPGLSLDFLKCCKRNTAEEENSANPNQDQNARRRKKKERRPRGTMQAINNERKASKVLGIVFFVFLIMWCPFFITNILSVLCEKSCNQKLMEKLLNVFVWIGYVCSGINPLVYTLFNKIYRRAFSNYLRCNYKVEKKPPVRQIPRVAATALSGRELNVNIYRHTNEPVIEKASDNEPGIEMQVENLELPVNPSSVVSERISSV
Description: The determination of intrinsic activity will be performed in accordance with the manufacturer’s Aequoscreen methodology—Perkin Elmer.
The cell density in the 96-well format was 5000 cells per well. Cell preparation for the assay was performed according to the manufacturer’s instructions for AequoScreen (PerkinElmer, Waltham, MA, USA). […] The cells suspension was applied onto the ligands with the injectors of the POLARstar optima reader (BMG Labtech, Ortenberg, Germany). […] The concentration and dilution series having four replicates were prepared as instructed in the AequoScreen Starter Kit Manual (PerkinElmer, Waltham, MA, USA). The wells received cell injections along with either the standard agonist or the compounds being evaluated, while the POLARstar optima reader documented the emitted light over a duration of 20 s. In the antagonist evaluation, cells were administered (50 μL) into the assay plate alongside antagonist solutions (50 μL).

Danio rerio larvae = experiment: Nile red fluorescence fat metabolism assay in zebrafish larvae; assay type: in vivo; conditions: 10 µg/mL, 48 h incubation of larvae
Description: The study was conducted based on the method described earlier by Jones et al.. Starting at 3 days after fertilization (dpf), larvae were placed into 6-well plates and incubated with the test solutions (compounds in E3: JP-14 at a concentration of 10 μg/mL or resveratrol or E3 alone) for 48 h. Resveratrol solution (20 μg/mL) was used as the reference compound. After 24 h, the solutions were replaced with new ones containing Nile red dye (9-diethylamino-5H-benzo[α]phenoxazine-5-one, Pol-aura, Poland) at a concentration of 100 ng/mL. Nile red is a selective fluorescent lipid dye used to stain lipid droplets. Incubation with the dye was therefore 24 h. Stock solution of Nile red was prepared earlier by dissolving it in acetone to a concentration of 500 μg/mL. After the incubation period, the larvae were rinsed 3 times with 0.1 M phosphate-buffered, pH 7.4 (PBS, Sigma-Aldrich, Schnelldorf, Germany) and anesthetized with cold […] tricaine solution (Sigma-Aldrich, Schnelldorf, Germany). Next, they were visualized under a fluorescence microscope (Zeiss.Discovery.V8, Zeiss, Oberkochen, Germany) and analyzed with ImageJ FIJI program (version 2.17.0).

3T3-L1 adipocytes = experiment: Phospholipidosis, HCS LipidTOX imaging in 3T3-L1 adipocytes; assay type: cell-based, mouse
Description: (§1) The 3T3-L1 mouse embryonic fibroblast cell line (ATCC CRL-11605) was cultured according to the standard protocol in Dulbecco’s Modified Eagle Medium (DMEM) supplemented with 10% bovine calf serum, 100 µg/mL streptomycin, and 100 IU/mL penicillin, at 37 °C in a humidified atmosphere containing 5% CO2. Cells were seeded at a density of 10,000 cells/well in collagen type I–coated (10 µg/mL) 96-well plates and allowed to attach for 24 h. Differentiation was initiated by replacing the medium with induction medium composed of DMEM, 0.5 mM 3-isobutyl-1-methylxanthine (IBMX), 1 µM dexamethasone, and 10% fetal bovine serum (FBS). After 48 h (differentiation day 2), the medium was replaced with DMEM supplemented with 10% FBS and 10 µg/mL human recombinant insulin. After an additional 24 h, the medium was replaced with DMEM supplemented with 10% bovine calf serum, 100 µg/mL streptomycin, and 100 IU/mL penicillin. The medium was refreshed every 24 h for 10 consecutive days to allow full differentiation into adipocytes.
Lipid accumulation and phospholipidosis were evaluated using the HCS LipidTOX Phospholipidosis and Steatosis Detection Kit (Thermo Fisher Scientific). Cells were cultured in black, clear-bottom 96-well plates and treated as described. Next, cells were fixed with 4% paraformaldehyde (15 min), washed with PBS, and stained with LipidTOX Green Neutral Lipid Stain (for steatosis) and LipidTOX Red Phospholipidosis Detection Reagent, prepared according to the manufacturer’s instructions. Nuclei were counterstained with Hoechst 33342 (2 µg/mL). Image acquisition and quantitative analysis were performed using High Content Screening (HCS) technology on the ImageXpress XLS system (Molecular Devices). Lipid droplet and phospholipid content were quantified using automated image analysis pipelines.

α2-adrenoceptor = experiment: Competitive radioligand binding, [3H]clonidine, rat cerebral cortex; conditions: n.a. = no activity at 10–5 M
Description: The competitive radioligand-binding assay assessed affinity for α1- and α2-adrenoceptors. Experiments were carried out in the rat cerebral cortex. […] The membrane preparation and assay technique followed the previously reported protocol [10]. Radioactivity was measured using the MicroBeta2 scintillation counter (PerkinElmer, Kraków, Poland). The data was adjusted to match a single-site curve-fitting formula using Prism 8 (GraphPad Software, La Jolla, CA, USA), and the Ki values were estimated by means of the Cheng–Prusoff formula.

3T3-L1 cells = experiment: Lipid accumulation (AdipoRed assay) in 3T3-L1 cells; assay type: cell-based, mouse
Description: as §1
On day 10 of differentiation, cells were treated with test compounds for 24 h. To investigate the involvement of the TAAR1 receptor, cells were pre-treated for 15 min with the selective TAAR1 antagonist RTI-7470-44 (40 nM) before compound exposure. After incubation, the culture medium was removed, and wells were gently rinsed with 200 µL PBS and refilled with 200 µL PBS. AdipoRed reagent (5 µL; Lonza) was added to each well, mixed, and incubated at room temperature for 10 min. Fluorescence was measured using the POLARstar Omega plate reader (excitation 485 nm, emission 535 nm).

Q: [H]/N=C(\N)NN=Cc1c(Cl)cncc1Cl [JP-14, (E)-2-((3,5-Dichloropyridin-4-yl)Methylene)Hydrazine-1-Carboximidamide] was tested. Which “5-HT2C Ago EC50” value [1] did it give?
A: did not exhibit any measurable agonistic or antagonistic activity

Q: And the “Nile red detectable fat” value (Danio rerio larvae)?
A: decrease

Q: What about the “effect on phospholipidosis under TAAR1 blockade” value (3T3-L1 adipocytes; 10 µM + RTI-7470-44 (40 nM)) of the same compound?
A: reversed

Q: What about the “phospholipidosis (phospholipid accumulation)” value (3T3-L1 adipocytes; 10 µM, vs vehicle) of the same compound?
A: significantly reduced

Q: What about the Ki (α2-adrenoceptor) of the same compound?
A: 126 ± 27 nM

Q: What about the “lipid-lowering effect under TAAR1 blockade” value (3T3-L1 cells; 10 µM + RTI-7470-44 (40 nM)) of the same compound?
A: completely abolished

Q: What about the “lipid accumulation (intracellular lipid content), reduction” value (3T3-L1 cells; 10 µM, compared to vehicle-treated controls) of the same compound?
A: 35%
